Assay results published in patent US20220380368A1, “SPIROCYCLIC ANDROGEN RECEPTOR PROTEIN DEGRADERS” (THE REGENTS OF THE UNIVERSITY OF MICHIGAN, priority 2019, published 2022).
Where two headings read alike, the source gives them in different places.

Legend:
AR protein = target: T1, AR protein (Homo sapiens, UniProt P10275); test: Western blotting analysis of AR protein levels in VCaP cells, band quantification, DC50/DC90; format: cell-based
T1 construct: endogenous in cells; host or cells: VCaP
T1 sequence (P10275 1-920): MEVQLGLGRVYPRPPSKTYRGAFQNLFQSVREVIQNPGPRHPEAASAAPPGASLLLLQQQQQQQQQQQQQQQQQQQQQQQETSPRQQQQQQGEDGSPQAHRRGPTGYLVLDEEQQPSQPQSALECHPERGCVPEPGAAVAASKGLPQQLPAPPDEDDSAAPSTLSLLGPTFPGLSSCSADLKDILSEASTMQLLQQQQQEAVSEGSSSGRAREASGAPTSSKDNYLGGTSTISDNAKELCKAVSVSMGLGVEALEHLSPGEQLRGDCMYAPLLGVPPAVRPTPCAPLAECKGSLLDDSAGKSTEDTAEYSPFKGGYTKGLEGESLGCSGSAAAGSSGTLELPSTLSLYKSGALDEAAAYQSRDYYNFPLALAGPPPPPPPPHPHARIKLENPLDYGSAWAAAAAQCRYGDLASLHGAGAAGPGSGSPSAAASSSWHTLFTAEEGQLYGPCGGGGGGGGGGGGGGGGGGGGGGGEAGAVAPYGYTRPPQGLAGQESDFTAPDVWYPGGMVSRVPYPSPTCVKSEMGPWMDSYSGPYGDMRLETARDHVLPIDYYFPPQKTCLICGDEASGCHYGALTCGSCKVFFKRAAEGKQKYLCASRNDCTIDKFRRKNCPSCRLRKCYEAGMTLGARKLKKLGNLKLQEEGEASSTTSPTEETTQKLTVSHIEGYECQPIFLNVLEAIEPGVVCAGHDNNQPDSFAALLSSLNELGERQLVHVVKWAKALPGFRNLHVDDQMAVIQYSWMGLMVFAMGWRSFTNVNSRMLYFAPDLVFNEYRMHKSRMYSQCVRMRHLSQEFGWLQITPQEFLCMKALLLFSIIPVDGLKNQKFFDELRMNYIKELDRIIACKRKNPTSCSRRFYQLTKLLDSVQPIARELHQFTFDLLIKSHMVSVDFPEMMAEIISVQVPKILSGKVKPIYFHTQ
Procedure, shortened: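 VCaP cells treated with compounds, lysed in RIPA and probed for AR by Western blot with GAPDH loading control. Band intensities normalised to GAPDH; DC50 from curve fit, DC90 calculated from DC50 and Hill slope via four-parameter equation.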

[1] = Mouse PK studies after oral and IV dosing; format: in vivo; conditions: for F: PO 3 mg/kg vs IV 1 mg/kg; for AUC(0-t) / clearance / half-life / Vd / Cmax / Tmax: in vivo; for clearance: read-out: IV Cl (converted); for Vd: read-out: IV VSS
Procedure: The pharmacokinetics of representative Compounds of the Disclosure were determined after oral and IV dosing at the concentrations indicated in mouse (Table 7). […] The vehicles used in these studies are either (i) 10% PEG400+90% PBS (adjusted to pH to 8.0 by 0.5 N NaOH); or (ii) 100% PEG200.

[2] = VCaP cells, Table 6; read-out: VCaP DC50
[3] = iv, 1 mg/kg, IV, dose 1 mg/kg, read-out: IV AUC(0 − t)
[4] = iv, 1 mg/kg, IV, dose 1 mg/kg, read-out: IV T1/2 (converted)
[5] = po, 3 mg/kg, PO, dose 3 mg/kg, read-out: PO AUC(0 − t)
[6] = po, 3 mg/kg, PO, dose 3 mg/kg, read-out: PO T1/2 (converted)

Row | SMILES | DC50 (AR protein; [2]) [nM] | F [1] [%] | AUC(0-t) [1, 3] [ng·h/mL] | clearance ([1]; iv, 1 mg/kg, IV, dose 1 mg/kg) [mL/min/kg] | half-life [1, 4] [h] | Vd ([1]; iv, 1 mg/kg, IV, dose 1 mg/kg) [L/kg] | Cmax ([1]; po, 3 mg/kg) [ng/mL] | Tmax ([1]; po, 3 mg/kg) [h] | AUC(0-t) [1, 5] [ng·h/mL] | half-life [1, 6] [h] | DC50 (AR protein; read-out: VCaP DC50; VCaP cells, Table 6) [nM]
1 | C[C@H]1CC2(CCN(c3cnc(C(=O)N4CCC(CN5CCN(c6cc7c(cc6F)C(=O)N(C6CCC(=O)NC6=O)C7=O)CC5)CC4)cn3)CC2)CN1c1ccc(C#N)c(Cl)c1 (stereo partly drawn) [Cpd. No. 493, 2-chloro-4-((3S)-8-(5-(4-((4-(2-(2,6-dioxopiperidin-3-yl)-6-fluoro-1,3-dioxoisoindolin-5-yl)piperazin-1-yl)methyl)piperidine-1-carbonyl)pyrazin-2-yl)-3-methyl-2,8-diazaspiro[4.5]decan-2-yl)benzonitrile] | 1 to 10 | 25 | 840 | 20.3 | 4.9 | 4.12 | 224 | 0.7 | 627 | 4.8 | –
2 | C[C@H]1CC2(CCN(c3cnc(C(=O)N4CCN(CC5CCN(c6ccc7c(c6)C(=O)N(C6CCC(=O)NC6=O)C7=O)CC5)CC4)cn3)CC2)CN1c1ccc(C#N)c(Cl)c1 (stereo partly drawn) [Cpd. No. 494, 2-chloro-4-((3S)-8-(5-(4-((1-(2-(2,6-dioxopiperidin-3-yl)-1,3-dioxoisoindolin-5-yl)piperidin-4-yl)methyl)piperazine-1-carbonyl)pyrazin-2-yl)-3-methyl-2,8-diazaspiro[4.5]decan-2-yl)benzonitrile] | 1 to 10 | 9 | 180 | 87.3 | 5.4 | 16.9 | 36 | 0.5 | 49 | 2.4 | –
3 | C[C@H]1CC2(CCN(c3ccc(C(=O)N4CCC(CN5Cc6cc7c(cc6C5)C(=O)N(C5CCC(=O)NC5=O)C7=O)CC4)nn3)CC2)CN1c1ccc(C#N)c(Cl)c1 (stereo partly drawn) [Cpd. No. 496, 2-chloro-4-((3S)-8-(6-(4-((6-(2,6-dioxopiperidin-3-yl)-5,7-dioxo-3,5,6,7-tetrahydropyrrolo[3,4-f]isoindol-2(1H)-yl)methyl)piperidine-1-carbonyl)pyridazin-3-yl)-3-methyl-2,8-diazaspiro[4.5]decan-2-yl)benzonitrile] | < 1 | 72 | 3030 | 5.33 | 5.8 | 1.46 | 1420 | 1 | 6550 | 4.1 | –
4 | C[C@H]1CC2(CCN(c3cnc(C(=O)N4CCC(N5CCN(c6ccc7c(c6)C(=O)N(C6CCC(=O)NC6=O)C7=O)CC5)CC4)cn3)CC2)CN1c1ccc(C#N)c(Cl)c1 (stereo partly drawn) [Cpd. No. 497, 2-chloro-4-((3S)-8-(5-(4-(4-(2-(2,6-dioxopiperidin-3-yl)-1,3-dioxoisoindolin-5-yl)piperazin-1-yl)piperidine-1-carbonyl)pyrazin-2-yl)-3-methyl-2,8-diazaspiro[4.5]decan-2-yl)benzonitrile] | < 1 | 30 | 849 | 18.8 | 2.7 | 2 | 336 | 0.5 | 760 | 2 | –
5 | C[C@H]1CC2(CCN(c3cnc(C(=O)N4CCC(N5CCN(c6cc7c(cc6F)C(=O)N(C6CCC(=O)NC6=O)C7=O)CC5)CC4)cn3)CC2)CN1c1ccc(C#N)c(Cl)c1 (stereo partly drawn) [Cpd. No. 498, 2-chloro-4-((3S)-8-(5-(4-(4-(2-(2,6-dioxopiperidin-3-yl)-6-fluoro-1,3-dioxoisoindolin-5-yl)piperazin-1-yl)piperidine-1-carbonyl)pyrazin-2-yl)-3-methyl-2,8-diazaspiro[4.5]decan-2-yl)benzonitrile] | 1 to 10 | 45 | 419 | 36.8 | 1.9 | 3.22 | 191 | 0.8 | 572 | 2.3 | –
6 | C[C@H]1CC2(CCN(c3ccc(C(=O)N4CCC(N5CCN(c6ccc7c(c6)C(=O)N(C6CCC(=O)NC6=O)C7=O)CC5)CC4)nn3)CC2)CN1c1ccc(C#N)c(Cl)c1 (stereo partly drawn) [Cpd. No. 499, 2-chloro-4-((3S)-8-(6-(4-(4-(2-(2,6-dioxopiperidin-3-yl)-1,3-dioxoisoindolin-5-yl)piperazin-1-yl)piperidine-1-carbonyl)pyridazin-3-yl)-3-methyl-2,8-diazaspiro[4.5]decan-2-yl)benzonitrile] | < 1 | 29 | 1920 | 8.17 | 3.6 | 1.73 | 404 | 1.3 | 1670 | 2 | –
7 | C[C@H]1CC2(CCN(c3ccc(C(=O)N4CCC(N5CCN(c6cc7c(cc6F)C(=O)N(C6CCC(=O)NC6=O)C7=O)CC5)CC4)nn3)CC2)CN1c1ccc(C#N)c(Cl)c1 (stereo partly drawn) [Cpd. No. 500, 2-chloro-4-((3S)-8-(6-(4-(4-(2-(2,6-dioxopiperidin-3-yl)-6-fluoro-1,3-dioxoisoindolin-5-yl)piperazin-1-yl)piperidine-1-carbonyl)pyridazin-3-yl)-3-methyl-2,8-diazaspiro[4.5]decan-2-yl)benzonitrile] | 1 to 10 | 60 | 1880 | 7.83 | 2.6 | 1.53 | 711 | 1.7 | 3750 | 2 | –
8 | C[C@H]1CC2(CCN(c3ccc(C(=O)N4CCN(CC5CN(c6cc7c(cc6F)C(=O)N(C6CCC(=O)NC6=O)C7=O)C5)CC4)cc3)CC2)CN1c1ccc(C#N)c(Cl)c1 (stereo partly drawn) [Cpd. No. 502, 2-chloro-4-((3S)-8-(4-(4-((1-(2-(2,6-dioxopiperidin-3-yl)-6-fluoro-1,3-dioxoisoindolin-5-yl)azetidin-3-yl)methyl)piperazine-1-carbonyl)phenyl)-3-methyl-2,8-diazaspiro[4.5]decan-2-yl)benzonitrile] | < 1 | 32 | 3490 | 3.33 | 10 | 3 | 289 | 3.3 | 3390 | 9.5 | –
9 | C[C@H]1CC2(CCN(c3ccc(C(=O)N4CCN(C5CN(c6ccc7c(c6)C(=O)N(C6CCC(=O)NC6=O)C7=O)C5)CC4)cc3F)CC2)CN1c1ccc(C#N)c(Cl)c1 (stereo partly drawn) [Cpd. No. 510, 2-chloro-4-((3S)-8-(4-(4-(1-(2-(2,6-dioxopiperidin-3-yl)-1,3-dioxoisoindolin-5-yl)azetidin-3-yl)piperazine-1-carbonyl)-2-fluorophenyl)-3-methyl-2,8-diazaspiro[4.5]decan-2-yl)benzonitrile] | – | 51 | 4080 | 3.33 | 8.3 | 2.1 | 518 | 2.7 | 6270 | 7.2 | < 1
